{
  "source": "patent US8192962B2",
  "about": "“Processes for detecting toxic substances” (Daikin Industries, Ltd., priority 2001, dated 2012)",
  "tested_on": "Unknown protein yeast genes",
  "assay": "DNA chip mRNA expression in yeast, unknown protein yeast genes (Table 1)",
  "assay_type": "cell-based, Saccharomyces cerevisiae S288C",
  "summary_of_the_method": "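Untreated cultures served as reference for log-phase S288C yeast given a growth-inhibiting, non-lethal toxicant dose for 2 h at 25° C. in YPD. Gene expression was measured on a whole-genome DNA chip from Cy3/Cy5-labeled cDNA.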",
  "data": [
    {"smiles": "CCCCC[C@H](O)CC(=O)CCc1ccc(O)c(OC)c1", "note": "[(13), gingerol]", "values": [
      {"measurement": "The level of expressed mRNA in the presence of chemical substance/The level of expressed mRNA in the absence of chemical substance", "setting": "yeast gene YAL018C", "value": 1.3},
      {"measurement": "The level of expressed mRNA in the presence of chemical substance/The level of expressed mRNA in the absence of chemical substance", "setting": "yeast gene YAL049C, incubated two hours with substance", "value": 1.6},
      {"measurement": "The level of expressed mRNA in the presence of chemical substance/The level of expressed mRNA in the absence of chemical substance", "setting": "yeast gene YAR031W", "value": 3.3},
      {"measurement": "The level of expressed mRNA in the presence of chemical substance/The level of expressed mRNA in the absence of chemical substance", "setting": "yeast gene YAR047C", "value": 1.4},
      {"measurement": "The level of expressed mRNA in the presence of chemical substance/The level of expressed mRNA in the absence of chemical substance", "setting": "yeast gene YAR064W", "value": 1.1},
      {"measurement": "The level of expressed mRNA in the presence of chemical substance/The level of expressed mRNA in the absence of chemical substance", "setting": "yeast gene YBL048W", "value": 2.7},
      {"measurement": "The level of expressed mRNA in the presence of chemical substance/The level of expressed mRNA in the absence of chemical substance", "setting": "yeast gene YBL049W", "value": 3.9},
      {"measurement": "The level of expressed mRNA in the presence of chemical substance/The level of expressed mRNA in the absence of chemical substance", "setting": "yeast gene YBL107C", "value": 2.6},
      {"measurement": "The level of expressed mRNA in the presence of chemical substance/The level of expressed mRNA in the absence of chemical substance", "setting": "yeast gene YBR012C", "value": 2.1},
      {"measurement": "The level of expressed mRNA in the presence of chemical substance/The level of expressed mRNA in the absence of chemical substance", "setting": "yeast gene YBR062C", "value": 2.8},
      {"measurement": "The level of expressed mRNA in the presence of chemical substance/The level of expressed mRNA in the absence of chemical substance", "setting": "yeast gene YBR124W", "value": 0.9},
      {"measurement": "The level of expressed mRNA in the presence of chemical substance/The level of expressed mRNA in the absence of chemical substance", "setting": "yeast gene YBR287W", "value": 3.4},
      {"measurement": "The level of expressed mRNA in the presence of chemical substance/The level of expressed mRNA in the absence of chemical substance", "setting": "yeast gene YCL056C", "value": 1.3},
      {"measurement": "The level of expressed mRNA in the presence of chemical substance/The level of expressed mRNA in the absence of chemical substance", "setting": "yeast gene YCR007C", "value": 1.5},
      {"measurement": "The level of expressed mRNA in the presence of chemical substance/The level of expressed mRNA in the absence of chemical substance", "setting": "yeast gene YCR013C", "value": 3.9},
      {"measurement": "The level of expressed mRNA in the presence of chemical substance/The level of expressed mRNA in the absence of chemical substance", "setting": "yeast gene YDL027C", "value": 3.2},
      {"measurement": "The level of expressed mRNA in the presence of chemical substance/The level of expressed mRNA in the absence of chemical substance", "setting": "yeast gene YDL046W", "value": 1.5},
      {"measurement": "The level of expressed mRNA in the presence of chemical substance/The level of expressed mRNA in the absence of chemical substance", "setting": "yeast gene YDL110C", "value": 2.7},
      {"measurement": "The level of expressed mRNA in the presence of chemical substance/The level of expressed mRNA in the absence of chemical substance", "setting": "yeast gene YDL169C", "value": 3.7},
      {"measurement": "The level of expressed mRNA in the presence of chemical substance/The level of expressed mRNA in the absence of chemical substance", "setting": "yeast gene YDR090C", "value": 0.8},
      {"measurement": "The level of expressed mRNA in the presence of chemical substance/The level of expressed mRNA in the absence of chemical substance", "setting": "yeast gene YDR128W", "value": 1.1},
      {"measurement": "The level of expressed mRNA in the presence of chemical substance/The level of expressed mRNA in the absence of chemical substance", "setting": "yeast gene YDR133C", "value": 0.1},
      {"measurement": "The level of expressed mRNA in the presence of chemical substance/The level of expressed mRNA in the absence of chemical substance", "setting": "yeast gene YDR210W", "value": 2.3},
      {"measurement": "The level of expressed mRNA in the presence of chemical substance/The level of expressed mRNA in the absence of chemical substance", "setting": "yeast gene YDR250C", "value": 1.2},
      {"measurement": "The level of expressed mRNA in the presence of chemical substance/The level of expressed mRNA in the absence of chemical substance", "setting": "yeast gene YDR366C", "value": 0.8},
      {"measurement": "The level of expressed mRNA in the presence of chemical substance/The level of expressed mRNA in the absence of chemical substance", "setting": "yeast gene YDR435C", "value": 2.5},
      {"measurement": "The level of expressed mRNA in the presence of chemical substance/The level of expressed mRNA in the absence of chemical substance", "setting": "yeast gene YDR476C", "value": 2.8},
      {"measurement": "The level of expressed mRNA in the presence of chemical substance/The level of expressed mRNA in the absence of chemical substance", "setting": "yeast gene YER037W", "value": 3.0},
      {"measurement": "The level of expressed mRNA in the presence of chemical substance/The level of expressed mRNA in the absence of chemical substance", "setting": "yeast gene YFL024C", "value": 0.9},
      {"measurement": "The level of expressed mRNA in the presence of chemical substance/The level of expressed mRNA in the absence of chemical substance", "setting": "yeast gene YFR003C", "value": 2.5},
      {"measurement": "The level of expressed mRNA in the presence of chemical substance/The level of expressed mRNA in the absence of chemical substance", "setting": "yeast gene YFR026C", "value": 1.1},
      {"measurement": "The level of expressed mRNA in the presence of chemical substance/The level of expressed mRNA in the absence of chemical substance", "setting": "yeast gene YGR035C", "value": 2.1},
      {"measurement": "The level of expressed mRNA in the presence of chemical substance/The level of expressed mRNA in the absence of chemical substance", "setting": "yeast gene YGR038W", "value": 1.2},
      {"measurement": "The level of expressed mRNA in the presence of chemical substance/The level of expressed mRNA in the absence of chemical substance", "setting": "yeast gene YGR110W", "value": 3.6},
      {"measurement": "The level of expressed mRNA in the presence of chemical substance/The level of expressed mRNA in the absence of chemical substance", "setting": "yeast gene YGR139W", "value": 0.4},
      {"measurement": "The level of expressed mRNA in the presence of chemical substance/The level of expressed mRNA in the absence of chemical substance", "setting": "yeast gene YGR237C, incubated two hours with substance", "value": 1.6},
      {"measurement": "The level of expressed mRNA in the presence of chemical substance/The level of expressed mRNA in the absence of chemical substance", "setting": "yeast gene YGR277C, incubated two hours with substance", "value": 1.6},
      {"measurement": "The level of expressed mRNA in the presence of chemical substance/The level of expressed mRNA in the absence of chemical substance", "setting": "yeast gene YHL006C", "value": 1.1},
      {"measurement": "The level of expressed mRNA in the presence of chemical substance/The level of expressed mRNA in the absence of chemical substance", "setting": "yeast gene YHR209W", "value": 2.0},
      {"measurement": "The level of expressed mRNA in the presence of chemical substance/The level of expressed mRNA in the absence of chemical substance", "setting": "yeast gene YIL127C", "value": 0.4},
      {"measurement": "The level of expressed mRNA in the presence of chemical substance/The level of expressed mRNA in the absence of chemical substance", "setting": "yeast gene YJL017W", "value": 1.5},
      {"measurement": "The level of expressed mRNA in the presence of chemical substance/The level of expressed mRNA in the absence of chemical substance", "setting": "yeast gene YJL037W", "value": 1.1},
      {"measurement": "The level of expressed mRNA in the presence of chemical substance/The level of expressed mRNA in the absence of chemical substance", "setting": "yeast gene YKL097C", "value": 0.9},
      {"measurement": "The level of expressed mRNA in the presence of chemical substance/The level of expressed mRNA in the absence of chemical substance", "setting": "yeast gene YKL107W", "value": 1.9},
      {"measurement": "The level of expressed mRNA in the presence of chemical substance/The level of expressed mRNA in the absence of chemical substance", "setting": "yeast gene YKR040C", "value": 0.6},
      {"measurement": "The level of expressed mRNA in the presence of chemical substance/The level of expressed mRNA in the absence of chemical substance", "setting": "yeast gene YKR075C", "value": 3.8},
      {"measurement": "The level of expressed mRNA in the presence of chemical substance/The level of expressed mRNA in the absence of chemical substance", "setting": "yeast gene YLR064W, incubated two hours with substance", "value": 1.6},
      {"measurement": "The level of expressed mRNA in the presence of chemical substance/The level of expressed mRNA in the absence of chemical substance", "setting": "yeast gene YLR297W", "value": 0.8},
      {"measurement": "The level of expressed mRNA in the presence of chemical substance/The level of expressed mRNA in the absence of chemical substance", "setting": "yeast gene YLR338W", "value": 1.2},
      {"measurement": "The level of expressed mRNA in the presence of chemical substance/The level of expressed mRNA in the absence of chemical substance", "setting": "yeast gene YLR392C", "value": 1.4}
    ]}
  ]
}
